Legend:
[1] = human immunotherapy, repeated KRN7000 administration; cited from earlier work
[2] = tested on: B16 melanoma cells; experiment: Therapeutic vaccination against B16 tumour cells; assay type: in vivo; conditions: B16 melanoma subcutaneous in C57BL/6 mice, intratumoural treatment when tumours palpable; FIG. 4
Experimental: C57BL/6 mice (n=5/group) were inoculated with 2.5×10^5 B16 melanoma cells kindly provided by Dr. Dellabona (Istituto scientifico San Raffaele, Milan, Sartorius R et al., 2011) subcutaneously in the left side. When the tumours became palpable, the mice were vaccinated with PBS, 2.5 micrograms aGalCer, 50 micrograms of fdWT bacteriophages or 50 micrograms of fdWT/aGalCer in a total volume of 80 microliters. Tumour growth was assessed three times a week using a caliber and reported as tumour volume (in mm^3) according to the formula (d^2×D)/2, where d and D are the minor diameter and the major one, respectively. The mice were sacrificed when the size of the tumour had exceeded 1,500 mm^3, in compliance with the established guidelines. Survival was recorded as the percentage of surviving animals.

[3] = tested on: splenocytes; conditions: stated as known, cited from earlier work
[4] = tested on: iNKT cells; conditions: animal model; prevents release of cytokines after recall stimulations (Sullivan and Kronenberg 2005); cited from earlier work

Structure (SMILES) | tolerability in patients [1] | tumour growth [2] | levels of T-cell receptor (TCR) on iNKTs ([3]; administered intravenously to mice) | ability of splenocytes to proliferate and produce cytokines after in vitro restimulation with aGalCer ([3]; mice injected with soluble aGalCer, compared to naive splenocytes) | clinical response in patients [1] | anergy of iNKT cells [4]
CCCCCCCCCCCCCCCCCCCCCCCCCC(=O)N[C@@H](CO[C@H]1OC(CO)[C@H](O)C(O)C1O)[C@H](O)[C@H](O)CCCCCCCCCCCCCC (stereo partly drawn) [aGalCer, alpha-Galactosylceramide] | well tolerated |  |  |  |  | 
CCCCCCCCCCCCCCCCCCCCCCCCCC(=O)N[C@@H](CO[C@H]1O[C@H](CO)[C@H](O)[C@H](O)[C@H]1O)[C@H](O)[C@H](O)CCCCCCCCCCCCCC [aGalCer, alpha-Galactosylceramide] |  | not able to protect animals from tumour growth | decrease | lose rapidly their ability to proliferate and produce cytokines | weak clinical response | induces long term cell anergy of iNKT cells

Source: US11744901B2, “Phage conjugates and uses thereof” (CONSIGLIO NAZIONALE DELLE RICERCHE, priority 2017, dated 2023)
